Values after ≈ are worked out from the molar mass of the structure shown. Like-named read-outs stand apart in the source and are kept apart here. Where a SMILES comes first, the peptide text is derived from it.
What was measured:
Format in all cases: cell-based
[1] = system: Candida parapsilosis ATCC 22019; assay: microbe, parasite or virus in culture; conditions: for MIC: Lodderomyces parapsilosis, ATCC22019
Summary of the method: (§1)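 Endpoint is visible-growth inhibition (MIC) after 35°C, 20–24 h incubation. Yeast medium was RPMI-1640 MOPS; bacterial medium was Mueller Hinton broth, with or without divalent cations and lysed horse blood. Final peptide range 64-0.125μg/mL.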

Candida krusei ATCC 6258 = assay: microbe, parasite or virus in culture
Summary of the method: as §1

[2] = system: Candida albicans Clinical isolate - human; assay: microbe, parasite or virus in culture
Summary of the method: as §1

[3] = system: Streptococcus pneumoniae ATCC 49619; assay: microbe, parasite or virus in culture; conditions: ATCC 49619; read-out: MIC S. pneumoniae ATCC
Summary of the method: as §1

[4] = system: Streptococcus agalactiae ATCC 12386; assay: microbe, parasite or virus in culture; conditions: ATCC 12386; read-out: MIC S. agalactiae ATCC
Summary of the method: as §1

[5] = system: Streptococcus agalactiae Clinical isolate - animal; assay: microbe, parasite or virus in culture; conditions: clinical isolate - animal; read-out: MIC S. agalactiae
Summary of the method: as §1

[6] = system: Escherichia coli clinical isolate - animal; assay: microbe, parasite or virus in culture; conditions: clinical isolate - animal
Summary of the method: (§2)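 Each isolate was exposed to twofold peptide dilutions (final 64-0.125μg/mL) in Mueller Hinton broth, optionally supplemented with calcium and magnesium or 10% lysed horse blood. The MIC was taken as the lowest concentration lacking visible growth after 20–24 hours at 35°C.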

[7] = system: Pseudomonas aeruginosa ATCC 27853; assay: microbe, parasite or virus in culture; conditions: ATCC 27853; read-out: MIC P. aeruginosa ATCC
Summary of the method: as §2

[8] = system: Escherichia coli ATCC 25922; assay: microbe, parasite or virus in culture; conditions: ATCC 25922
Summary of the method: as §2

[9] = system: Staphylococcus aureus ATCC 29213; assay: microbe, parasite or virus in culture; conditions: ATCC 29213
Summary of the method: as §2

[10] = system: Staphylococcus aureus clinical isolate - animal; assay: microbe, parasite or virus in culture; conditions: clinical isolate - animal
Summary of the method: as §2

[11] = system: Pseudomonas aeruginosa clinical isolate - animal; assay: microbe, parasite or virus in culture; conditions: clinical isolate - animal; for MIC: read-out: MIC P. aeruginosa
Summary of the method: as §2

[12] = system: Staphylococcus aureus clinical isolate – animal, methicillin-resistant (MRSA); conditions: clinical isolate – animal, methicillin-resistant
Procedure: (§3) Antimicrobial testing of 78 cathelicidin MPs was performed in two phases as outlined in Figure 1 . In phase I, 40 peptides (27 extant and 13 ancestral) were selected for testing based on rank (outlined above) and similarity to published marsupial cathelicidins with known antimicrobial activity ([33], [41]–[43]). These peptides were tested against nine bacteria (Staphylococcus aureus ATCC 29213 and clinical isolate, Escherichia coli ATCC 25922 and clinical isolate, Pseudomonas aeruginosa ATCC 27853 and clinical isolate, Streptococcus agalactiae ATCC 12386 and clinical isolate, Streptococcus pneumoniae ATCC 49619) and three fungi (Candida krusei ATCC 6258, Candida parapsilosis ATCC 22019, and Candida albicans clinical isolate). Details regarding these strains are available in Supplementary Table 4 . The antimicrobial activity of cathelicidins was determined as the minimum inhibitory concentration (MIC), which was the lowest concentration of cathelicidin that prevented visible bacterial or fungal growth, relative to the negative control. […] Minimum bactericidal concentration (MBC) and/or minimum fungicidal concentration (MFC) was conducted to determine microbicidal versus static action. Activity against S. aureus ATCC, E. coli ATCC, and Pseudomonas aeruginosa ATCC 27853 was examined in the presence of divalent cations to determine the impact of inhibitors.
(§4) Antimicrobial activity was determined using a broth microdilution susceptibility assay in 96 well polypropylene plates according to Clinical Laboratory Standards Institute guidelines M07-A and M26A as described previously ([33], [42], [43]). The bacterial and fungal isolates from humans and animals used in this study are outlined in Supplementary Table 4 . Only yeasts were included in the panel of fungi as they have been used in the susceptibility testing of eutherian ([3], [81]–[83]) and other marsupial cathelicidins previously ([33], [42], [43]). Cathelicidin mature peptides were solubilized in DMSO and serially diluted in duplicate from 128-0.25μg/mL in a final volume of 100µL. For bacteria, cathelicidins were diluted in Mueller Hinton Broth (MHB) with or without 10% lysed horse blood, and with (MH II B) or without (MHB) calcium and magnesium cations. For fungi, cathelicidins were diluted in Roswell Park Memorial Institute medium (RPMI)-1640 MOPS. Ampicillin or tetracycline were included as a positive control for Gram-positive and -negative bacteria respectively, while amphotericin B was used for fungi. A media-only negative control and growth control (no cathelicidin) were also included on each plate. Bacteria were sub-cultured on Muller Hinton agar (MHA) or sheep blood agar (BA), and fungi on Sabouraud dextrose agar (SAB), 20–24 hours prior to the test. Colonies were suspended in saline, the concentration adjusted to a 0.5 McFarland standard, and then diluted in media to a concentration of 1.0 x 10^6 cells/mL. Then, 100μL was added to each well of the cathelicidin dilution plate, giving a final inoculum density of 5 x 10^5 CFU/mL and cathelicidin concentration of 64-0.125μg/mL. Colony counts were performed on MHA/BA/SAB to confirm inoculum density. All plates were incubated at 35°C for 20–24 hours, depending on the strain.
(§5) Colonies were counted and compared to the colony count of the starting inoculum.

[13] = system: Staphylococcus aureus clinical isolate – animal, penicillin-resistant (PRSA); conditions: clinical isolate – animal, penicillin-resistant (PRSA)
Procedure: as §3, §4, §5

[14] = ATCC 6258, read-out: MIC C. krusei ATCC

| Structure (SMILES) | MIC [3] | MFC C. parapsilosis ATCC ([1]; ATCC 22019) | MIC (Candida krusei ATCC 6258; [14]) | MIC [4] | MIC [5] | MBC E. coli [6] | MIC [6] | MIC in the presence of cations E. coli [6] | MIC [7] | MBC E. coli ATCC [8] | MBC S. aureus ATCC [9] | MIC S. aureus ATCC [9] | MIC in the presence of cations S. aureus ATCC [9] | MBC S. aureus [10] | MIC S. aureus [10] | MIC in the presence of cations S. aureus [10] | MIC [11] | MBC MRSA [12] | MIC MRSA [12] | MBC PRSA [13] | further results |
| --- | --- | --- | --- | --- | --- | --- | --- | --- | --- | --- | --- | --- | --- | --- | --- | --- | --- | --- | --- | --- | --- |
| C[C@@H]1[C@H](O)[C@@H](C)/C=C/C=C/C=C/C=C/C=C/C=C/C=C/[C@H](O[C@@H]2O[C@H](C)[C@@H](O)[C@H](N)[C@@H]2O)C[C@@H]2O[C@](O)(C[C@@H](O)C[C@@H](O)[C@H](O)CC[C@@H](O)C[C@@H](O)CC(=O)O[C@H]1C)C[C@H](O)[C@H]2C(=O)O [Amphotericin B, reference compound] | – | – | – | – | – | – | – | – | – | – | – | – | – | – | – | – | – | – | – | – | MIC ([1]; RPMI-1640 MOPS, 5 x 10^5 CFU/mL, 35°C 20–24 hours, duplicate): 0.5 µg/mL; MIC ([1]; µM version of Table 4, read-out: MIC C. parapsilosis ATCC): 0.5 µM; MIC (Candida krusei ATCC 6258; Pichia kudriavzevii, ATCC6258, RPMI-1640 MOPS, 5 x 10^5 CFU/mL, 35°C 20–24 hours, duplicate): 1 µg/mL; MIC (Candida krusei ATCC 6258; Pichia kudriavzevii, ATCC6258, µM version of Table 4, read-out: MIC C. krusei ATCC): 1 µM; MIC ([2]; Candida albicans, clinical isolate, RPMI-1640 MOPS, 5 x 10^5 CFU/mL, 35°C 20–24 hours, duplicate): 0.5 µg/mL; MIC ([2]; Candida albicans, clinical isolate, µM version of Table 4, read-out: MIC C. albicans): 0.5 µM |
| CC[C@H](C)[C@H](NC(=O)[C@H](CCCNC(=N)N)NC(=O)[C@@H](N)CCCCN)C(=O)NCC(=O)N[C@@H](CC(C)C)C(=O)NCC(=O)NCC(=O)N[C@@H](CC(C)C)C(=O)N[C@H](C(=O)N[C@@H](CCCNC(=N)N)C(=O)N[C@@H](CCCNC(=N)N)C(=O)N[C@H](C(=O)N[C@@H](CC(C)C)C(=O)N[C@@H](CC(=O)O)C(=O)N[C@@H](CCCNC(=N)N)C(=O)N[C@H](C(=O)N[C@@H](CCCNC(=N)N)C(=O)N[C@@H](CCCNC(=N)N)C(=O)N[C@@H](CCCNC(=N)N)C(=O)NCC(=O)O)[C@@H](C)CC)[C@@H](C)CC)C(C)C [AnstCath4] (H-KRIGLGGLVRRILDRIRRRG-OH) | >27.1 µM | 64 (>64) µg/mL | 8.9 µM | >27.1 µM | >27.1 µM | 27.1 µM (≈ 64 µg/mL) | 13.5 µM (≈ 31.9 µg/mL) | 27.1 µM | >27.1 µM | 27.1 (27.1)^27.1 µM | 13.5 (13.5)^13.5 µM | 13.5 (13.5)^13.5 µM | 13.5 (13.5)^13.5 µM | 13.5 (13.5)^13.5 µM | 13.5 (13.5)^13.5 µM | 13.5 (13.5)^13.5 µM | >27.1 µM | 27.1 µM (≈ 64 µg/mL) | 13.5 µM (≈ 31.9 µg/mL) | 6.7 µM (≈ 15.8 µg/mL) | MIC E. coli ATCC [8]: 27.1 (27.1)^27.1 µM; MIC PRSA [13]: 6.7 µM (≈ 15.8 µg/mL) |
| CC[C@H](C)[C@H](NC(=O)[C@H](CCCNC(=N)N)NC(=O)[C@@H](N)CCCCN)C(=O)NCC(=O)N[C@@H](Cc1ccccc1)C(=O)NCC(=O)N[C@@H](CC(C)C)C(=O)N[C@@H](Cc1ccccc1)C(=O)N[C@@H](Cc1c[nH]c2ccccc12)C(=O)N[C@@H](CC(=O)O)C(=O)NCC(=O)N[C@@H](CC(C)C)C(=O)N[C@@H](CCCNC(=N)N)C(=O)N[C@@H](CCCCN)C(=O)N[C@@H](CC(C)C)C(=O)NCC(=O)N[C@@H](CC(N)=O)C(=O)N[C@@H](CCCNC(=N)N)C(=O)N[C@H](C(=O)N[C@@H](CCCCN)C(=O)N[C@@H](CC(N)=O)C(=O)N[C@@H](CCCNC(=N)N)C(=O)N[C@H](C(=O)N[C@@H](CCCNC(=N)N)C(=O)N[C@@H](CC(=O)O)C(=O)N[C@@H](Cc1ccccc1)C(=O)N[C@@H](Cc1ccccc1)C(=O)N[C@@H](CO)C(=O)N[C@@H](CCCCN)C(=O)N[C@@H](Cc1ccccc1)C(=O)N[C@@H](CC(C)C)C(=O)NCC(=O)O)[C@@H](C)CC)[C@@H](C)CC [MAP9] (H-KRIGFGLFWDGLRKLGNRIKNRIRDFFSKFLG-OH) | – | > 16.5 µM | 8.2 µM | – | – | – | – | – | – | – | – | – | – | – | – | – | – | – | – | – | MIC C. parapsilosis ATCC ([1]; ATCC 22019): 16.5 µM (≈ 63.6 µg/mL); MFC C. krusei ATCC (Candida krusei ATCC 6258; ATCC 6258): 16.5 µM (≈ 63.6 µg/mL); MIC ([2]; Clinical isolate - human, read-out: MIC C. albicans): >16.5 µM |
| CC[C@H](C)[C@H](NC(=O)[C@H](CCCNC(=N)N)NC(=O)[C@@H](N)CCCCN)C(=O)NCC(=O)N[C@@H](CC(C)C)C(=O)NCC(=O)NCC(=O)N[C@@H](CC(C)C)C(=O)N[C@H](C(=O)N[C@@H](CCCNC(=N)N)C(=O)N[C@@H](CCCNC(=N)N)C(=O)N[C@H](C(=O)N[C@@H](Cc1c[nH]c2ccccc12)C(=O)N[C@@H](CC(N)=O)C(=O)N[C@@H](CCCNC(=N)N)C(=O)N[C@H](C(=O)N[C@@H](CCCNC(=N)N)C(=O)N[C@@H](CCCNC(=N)N)C(=O)N[C@@H](CCCNC(=N)N)C(=O)NCC(=O)O)[C@@H](C)CC)[C@@H](C)CC)C(C)C [SmcrCath3] (H-KRIGLGGLVRRIWNRIRRRG-OH) | >26.3 µM | – | 6.5 µM | >26.3 µM | >26.3 µM | 6.5 µM (≈ 15.8 µg/mL) | 3.2 µM (≈ 7.79 µg/mL) | 6.5 µM | >26.3 µM | 6.5 µM (≈ 15.8 µg/mL) | 6.5 (6.5)^6.5 µM | 6.5 (6.5)^6.5 µM | 6.5 (6.5)^6.5 µM | 6.5 (6.5)^6.5 µM | 6.5 (6.5)^6.5 µM | 6.5 (6.5)^6.5 µM | 26.3 µM (≈ 64 µg/mL) | 6.5 µM (≈ 15.8 µg/mL) | 6.5 µM (≈ 15.8 µg/mL) | 6.5 µM (≈ 15.8 µg/mL) | MFC C. albicans ([2]; Clinical isolate - human): 26.3 µM (≈ 64 µg/mL); MIC ([8]; read-out: MIC E. coli ATCC): 6.5 µM (≈ 15.8 µg/mL); MIC ([8]; read-out: MIC in the presence of cations E. coli ATCC): 13.1 µM; MBC P. aeruginosa [11]: > 26.3 µM; MIC PRSA [13]: 3.2 µM (≈ 7.79 µg/mL) |

Source: article PMC12006171, “Marsupial cathelicidins: characterization, antimicrobial activity and evolution in this unique mammalian lineage” (Frontiers in Immunology, 2025)
